In patent publication US7807690B2, “2,3-dihydro-iminoisoindole derivatives” (Eisai R&D Management Co., Ltd., priority 2007, dated 2010):
Counter-ions that a name gives are not always drawn.

target: T1, human clotting factor VIIa (Homo sapiens, UniProt P08709); experiment: Inhibiting activity against clotting factor VIIa (chromogenic substrate Spectrozyme FVIIa, TF/Factor VIIa enzyme solution); assay type: biochemical; details: 10 nmol/L human TF, 5 nmol/L Factor VIIa, room temperature 40 minutes, 405 nm
T1 construct: a human clotting factor VIIa (hereinafter, “Factor VIIa”) purified sample; purchased Enzyme Research Laboratories HFVIIa
T1 sequence (P08709 213-466 limits assumed): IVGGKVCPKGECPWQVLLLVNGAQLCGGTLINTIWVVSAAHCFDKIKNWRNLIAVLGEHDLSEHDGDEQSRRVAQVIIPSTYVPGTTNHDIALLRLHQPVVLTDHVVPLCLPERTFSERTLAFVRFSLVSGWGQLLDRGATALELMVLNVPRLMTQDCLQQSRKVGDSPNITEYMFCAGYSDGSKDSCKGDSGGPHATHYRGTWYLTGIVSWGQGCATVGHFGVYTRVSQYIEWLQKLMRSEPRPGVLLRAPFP
T1 sequence (P08709 61-212 limits assumed): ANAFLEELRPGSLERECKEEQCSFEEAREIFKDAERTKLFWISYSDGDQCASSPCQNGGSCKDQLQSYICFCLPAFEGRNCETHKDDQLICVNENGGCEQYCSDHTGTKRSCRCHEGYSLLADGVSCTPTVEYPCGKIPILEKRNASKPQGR
T1 sequence (P13726 33-295 partner): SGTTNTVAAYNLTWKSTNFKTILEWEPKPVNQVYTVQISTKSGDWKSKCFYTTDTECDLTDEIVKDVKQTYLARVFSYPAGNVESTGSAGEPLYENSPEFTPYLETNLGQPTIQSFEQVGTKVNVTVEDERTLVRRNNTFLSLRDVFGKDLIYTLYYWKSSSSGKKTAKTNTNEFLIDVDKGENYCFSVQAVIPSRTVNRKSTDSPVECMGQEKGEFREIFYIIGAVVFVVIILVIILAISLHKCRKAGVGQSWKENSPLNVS
Experimental: A dimethyl sulfoxide (DMSO) solution was prepared with an invention compound concentration of 10 mmol/L (10 mmol/L compound solution).
One packet of tris-hydroxymethylaminomethane-preset (hereinafter referred to as “Tris preset”)(Product of Sigma Corp., Catalog No. T8293), 8.8 g of sodium chloride (NaCl) and 1 g of bovine serum albumin (hereinafter abbreviated as “BSA”) were dissolved in 1 L of water to prepare a Tris-BSA buffer (100 mmol/L Tris, 0.15 mol/L NaCl, 0.1% BSA, pH 7.4).
The Tris-BSA buffering solution (180 μL) was added to the aforementioned 10 mmol/L compound solution (20 μL). The mixture was provided for a 10-fold dilution series using the aforementioned Tris-BSA buffering solution to prepare solutions with compound concentrations of 1.0 mmol/L, 100, 10, 1, 0.1, 0.01 and 0.001 μmol/L (1.0 mmol-0.001 μmol/L compound solutions).
As a control, a solution was prepared by 10-fold dilution of DMSO with the Tris-BSA buffer (hereinafter referred to as “control 10% solution”).
After dissolving one pack of Tris-Preset, NaCl (8.8 g) and BSA (1 g) in water (approximately 900 mL), a 1 mol/L calcium chloride (CaCl2) aqueous solution (15 mL) and a 1 mg/mL Cephalin aqueous solution (30 mL) were added, and water was added to a total volume of 1 L. To this solution there was added a human tissue factor (hereinafter, “TF”) sample (product of Calbiochem, Catalog No. 612151)(450 μg) to a TF sample concentration of 10 nmol/L, and then a human clotting factor VIIa (hereinafter, “Factor VIIa”) purified sample (product of Enzyme Research Laboratories, Catalog No. HFVIIa)(250 μg) was added to a Factor VIIa purified sample concentration of 5 nmol/L, to prepare an enzyme solution (100 mmol/L Tris-HCl, 0.15 mol/L NaCl, 15 mmol/L CaCl2, 30 μg/mL Cephalin, 1 mg/mL BSA, 10 nmol/L TF, 5 nmol/L Factor VIIa).
To 110 μL of this enzyme solution there was added 15 μL of each of the 1.0-mmol-0.001 μmol/L compound solutions, and then 25 μL of a 1.0 mmol/L synthetic chromogenic substrate solution (Spectrozyme FVIIa, product of American Diagnostica, Catalog No. 217L) was added and the mixture was allowed to stand at room temperature for 40 minutes. The amount of 4-nitroanilide released into the solution was quantified by spectrophotometry (405 nm).
A control […] was used in place of the compound solution for measurement in the same manner as a control.
The enzyme reaction inhibition was determined based on this measurement in the presence of the compounds of the invention from 100 μmol/L to 0.1 nmol/L. The IC50 value of each compound as an index of inhibiting activity against clotting factor VIIa was calculated based on nonlinear regression analysis of the enzyme reaction inhibition at each compound concentration.

IC50 [nM] | SMILES
3 | CCc1cc(OCCO)c(F)c(C(Nc2ccc3c(c2)CNC3=N)c2nn(-c3ncccc3N)c(=O)[nH]2)c1 (single isomer, unassigned) [Example 16, Acetate]
2 | CCc1cc(OCCO)c(F)c(C(Nc2ccc3c(c2)CNC3=N)c2nn(-c3ccsc3C(=O)O)c(=O)[nH]2)c1 (single isomer, unassigned) [Example 17]
4 | COc1cc(F)c(C(Nc2ccc3c(c2)CNC3=N)c2nn(-c3ccccc3C(=O)O)c(=O)[nH]2)cc1OC (centres unmarked) [Example 13, 2-{3-[(2-Fluoro-4,5-dimethoxyphenyl)-(1-imino-2,3-dihydro-1H-isoindol-5-ylamino)methyl]-5-oxo-4,5-dihydro-[1,2,4]triazol-1-yl}benzoic Acid Trifluoroacetate]
13 | COc1cc(OC)c(F)c(C(Nc2ccc3c(c2)CNC3=N)c2nn(-c3ccccc3[N+](=O)[O-])c(=O)[nH]2)c1 (centres unmarked) [Example 14, 5-[(2-Fluoro-3,5-dimethoxyphenyl)-(1-imino-2,3-dihydro-1H-isoindol-5-ylamino)methyl]-2-(2-nitrophenyl)-2,4-dihydro-[1,2,4]triazol-3-one trifluoroacetate]
207 | COc1cc(F)c(C(Nc2ccc3c(c2)CNC3=N)c2nn(-c3n[nH]cc3C(=O)O)c(=O)[nH]2)cc1OC (centres unmarked) [Example 15, 3-{3-[(2-Fluoro-4,5-dimethoxyphenyl)-(1-imino-2,3-dihydro-1H-isoindol-5-ylamino)methyl]-5-oxo-4,5-dihydro-[1,2,4]triazol-1-yl}-1H-pyrazole-4-carboxylic Acid]

Second part, the molecule before the results:

SMILES | IC50 [nM]
COc1cc(C(Nc2ccc3c(c2)CNC3=N)c2nn(-c3ncsc3C(=O)O)c(=O)[nH]2)c(F)c2c1OCCC2 (single isomer, unassigned) [Example 1] | 38
COc1cc(C(Nc2ccc3c(c2)CNC3=N)c2nn(-c3ncccc3N)c(=O)[nH]2)cc2c1OCOC2 (single isomer, unassigned) [Example 2, acetate] | 13
COc1cc(C(Nc2ccc3c(c2)CNC3=N)c2nn(-c3ncccn3)c(=O)[nH]2)cc2c1OCOC2 (single isomer, unassigned) [Example 5] | 20
COc1cc(C(Nc2ccc3c(c2)CNC3=N)c2nn(-c3ccsc3C(=O)O)c(=O)[nH]2)cc2c1OCOC2 (single isomer, unassigned) [Example 7] | 3
COc1cc(F)c(C(Nc2ccc3c(c2)CNC3=N)c2nn(-c3ccccc3N)c(=O)[nH]2)cc1OC (single isomer, unassigned) [Example 10, acetate] | 12
CCc1cc(OCCN(C)C)c(F)c(C(Nc2ccc3c(c2)CNC3=N)c2nn(-c3ncccn3)c(=O)[nH]2)c1 (centres unmarked) [Example 3, 5-{[3-(2-Dimethylaminoethoxy)-5-ethyl-2-fluorophenyl]-(1-imino-2,3-dihydro-1H-isoindol-5-ylamino)methyl}-2-pyrimidin-2-yl-2,4-dihydro-[1,2,4]triazol-3-one Bistrifluoroacetate] | 25
CCc1cc(OCCO)c(F)c(C(Nc2ccc3c(c2)CNC3=N)c2nn(-c3ncccn3)c(=O)[nH]2)c1 (centres unmarked) [Example 4, 5-{[5-Ethyl-2-fluoro-3-(2-hydroxyethoxy)phenyl]-(1-imino-2,3-dihydro-1H-isoindol-5-ylamino)methyl}-2-pyrimidin-2-yl-2,4-dihydro-[1,2,4]triazol-3-one] | 14
COc1cc(OCCO)c(F)c(C(Nc2ccc3c(c2)CNC3=N)c2nn(-c3ncsc3C(=O)O)c(=O)[nH]2)c1 (centres unmarked) [Example 6, 4-(3-{[2-Fluoro-3-(2-hydroxyethoxy)-5-methoxyphenyl]-(1-imino-2,3-dihydro-1H-isoindol-5-ylamino)methyl}-5-oxo-4,5-dihydro-[1,2,4]triazol-1-yl)thiazole-5-carboxylic Acid] | 123
CCc1cc(OCCN(C)C)c(F)c(C(Nc2ccc3c(c2)CNC3=N)c2nn(-c3ccccc3N)c(=O)[nH]2)c1 (centres unmarked) [Example 8, 2-(2-Aminophenyl)-5-{[3-(2-dimethylaminoethoxy)-5-ethyl-2-fluorophenyl]-(1-imino-2,3-dihydro-1H-isoindol-5-ylamino)methyl}-2,4-dihydro-[1,2,4]triazol-3-one bistrifluoroacetate] | 15
COc1cc(F)c(C(Nc2ccc3c(c2)CNC3=N)c2nn(-c3nc[nH]c3C(=O)O)c(=O)[nH]2)cc1OC (centres unmarked) [Example 9, 5-{3-[(2-Fluoro-4,5-dimethoxyphenyl)-(1-imino-2,3-dihydro-1H-isoindol-5-ylamino)methyl]-5-oxo-4,5-dihydro-[1,2,4]triazol-1-yl}-3H-imidazole-4-carboxylic Acid] | 42
COc1cc(OCCO)c(F)c(C(Nc2ccc3c(c2)CNC3=N)c2nn(-c3ncoc3C(=O)O)c(=O)[nH]2)c1 (centres unmarked) [Example 11, 4-(3-{[2-Fluoro-3-(2-hydroxyethoxy)-5-methoxyphenyl]-(1-imino-2,3-dihydro-1H-isoindol-5-ylamino)methyl}-5-oxo-4,5-dihydro-[1,2,4]triazol-1-yl)oxazole-5-carboxylic acid] | 242
COc1cc(F)c(C(Nc2ccc3c(c2)CNC3=N)c2nn(-c3cccc[n+]3[O-])c(=O)[nH]2)cc1OC (centres unmarked) [Example 12, 5-[(2-Fluoro-4,5-dimethoxyphenyl)-(1-imino-2,3-dihydro-1H-isoindol-5-ylamino)methyl]-2-(1-oxypyridin-2-yl)-2,4-dihydro-[1,2,4]triazol-3-one] | 163
